# Assay results from publication PMC12621569 (Antiviral research, 2025).
# Experiments:
# [1] = system: B/Victoria neuraminidase (NA); format: biochemical, influenza B/Victoria lineage virus
# [2] = system: A(H3N2) viruses; format: cell-based, influenza A(H3N2) virus
# [3] = system: A(H1N1)pdm09 viruses; format: cell-based, influenza A(H1N1)pdm09 virus
# [4] = system: influenza A viruses; format: cell-based, influenza A virus
# [5] = system: type A viruses; conditions: cited from earlier work
# [6] = molecular target: A (H1N1)pdm09 neuraminidase (NA); format: biochemical, influenza A (H1N1)pdm09 virus
SMILES,effect of substitution on inhibition of NA activity [1],effect on baloxavir susceptibility [2],effect on baloxavir susceptibility [3],change in EC50 [4],elevated baloxavir EC50 in cell culture [5],variably elevated baloxavir EC50 [5],IC50 Fold [6] [fold],IC50 fold vs NA sequence-matched virus [1] [fold]
"CCOC(=O)C1=C[C@@H](OC(CC)CC)[C@H](NC(C)=O)[C@@H](N)C1 [Oseltamivir, oseltamivir]",improving the ability,–,–,–,–,–,–,–
"O=C1c2c(O)c(=O)ccn2N([C@@H]2c3ccccc3SCc3c2ccc(F)c3F)[C@@H]2COCCN12 [Baloxavir, baloxavir]",–,no effect,no effect,• Natural polymorphism • No or little change in EC50 (<3-fold),• Primary treatment-emergent; associated with diminished virologic response in clinical settings • Rarely as natural polymorphism • Confers elevated baloxavir EC50 in cell culture (11–614-fold),• Most are natural polymorphisms • Some emerged post baloxavir exposure or introduced for assessment • Confer variably elevated baloxavir EC50 (<3–19 fold),–,–
"CCC(CC)[C@H](NC(C)=O)[C@@H]1[C@H](O)[C@@H](C(=O)O)C[C@H]1N=C(N)N [Peramivir, peramivir]",improving the ability,–,–,–,–,–,301,14
